Experimental data: patent US8476271B2 (priority 2008, dated 2013)
Structures can show the parent of a compound that is named as a salt.

Assays:
[1] = abnormal behavioral side effects (sedation, hyperactivity, hypoactivity); conditions: rat, in vivo
[2] = target: hERG (human ether a-go-go gene) (Homo sapiens (Human), UniProt Q12809); assay: cardiovascular side effects: in vitro hERG assay and APD in guinea pig purkinje fibers
Method: These side effects were determined using known methods: an in vitro hERG (human ether a-go-go gene) assay as disclosed in Z. Zhou et al., “Properties of HERG Channels Stably Expressed in HEK 293 Cells Studied at Physiological Temperature,” Biophysical J. 74:230-241 (1998); and APD (action potential duration) in guinea pig purkinje fibers as disclosed in J. A. Hey, “The Guinea Pig Model for Assessing Cardiotoxic Proclivities of Second Generation Antihistamines,” Arzneimittelforschung 46(8):834-837 (1996).

[3] = system: FCA-induced thermal hyperalgesia; assay: FCA model of inflammatory pain, thermal hyperalgesia (PWL, plantar test); format: in vivo; conditions: rat
Method: (§1) Each experiment used rats weighing between 200-260 g at the start of the experiment. The rats were group-housed and had free access to food and water at all times, except prior to oral administration of a Substituted-Quinoxaline-Type Bridged-Piperidine Compound when food was removed for 16 hours before dosing. A control group acted as a comparison to rats treated with a Substituted-Quinoxaline-Type Bridged-Piperidine Compound. The control group was administered the carrier for the Substituted-Quinoxaline-Type Bridged-Piperidine Compound. The volume of carrier administered to the control group was the same as the volume of carrier and Substituted-Quinoxaline-Type Bridged-Piperidine Compound administered to the test group.
To assess the actions of a Substituted-Quinoxaline-Type Bridged-Piperidine Compound for the treatment or prevention of inflammatory pain, the Freund's complete adjuvant (“FCA”) model of inflammatory pain was used. […] The left hind paw of each animal was administered a 50 μL intraplantar injection of 50% FCA. 24 hour post injection, the animal was assessed for response to noxious mechanical stimuli by determining the PWT, or to noxious thermal stimuli by determining the PWL, as described below. […] Responses to noxious mechanical stimuli were then determined 1, 3, 5 and 24 hours post administration. Percentage reversal of hyperalgesia for each animal was defined as: […]
The plantar test can be used to assess thermal hyperalgesia. For this test, hind paw withdrawal latencies (PWL) to a noxious thermal stimulus were determined using a plantar test apparatus (commercially available from Ugo Basile of Italy) following the technique described by K. Hargreaves et al., “A New and Sensitive Method for Measuring Thermal Nociception in Cutaneous Hyperalgesia,” Pain 32(1):77-88 (1988). The maximum exposure time was set at 32 seconds to avoid tissue damage and any directed paw withdrawal from the heat source was taken as the end point. Three latencies were determined at each time point and averaged. Either only the affected (ipsilateral) paw was tested, or both the ipsilateral and contralateral (non-injured) paw were tested.

[4] = system: nerve injury-induced mechanical hyperalgesia; assay: Seltzer partial sciatic nerve ligation model of neuropathic pain, mechanical hyperalgesia (PWT); format: in vivo; conditions: rat, 3 mg/kg
Method: as §1
Partial ligation of the left sciatic nerve was performed under isoflurane/O2 inhalation anesthesia. Following induction of anesthesia, the left thigh of the rat was shaved and the sciatic nerve exposed at high thigh level through a small incision and was carefully cleared of surrounding connective tissues at a site near the trocanther just distal to the point at which the posterior biceps semitendinosus nerve branches off of the common sciatic nerve. A 7-0 silk suture was inserted into the nerve with a ⅜ curved, reversed-cutting mini-needle and tightly ligated so that the dorsal ⅓ to ½ of the nerve thickness was held within the ligature. The wound was closed with a single muscle suture (4-0 nylon (Vicryl)) and vetbond tissue glue. Following surgery, the wound area was dusted with antibiotic powder. Sham-treated rats underwent an identical surgical procedure except that the sciatic nerve was not manipulated. Following surgery, animals were weighed and placed on a warm pad until they recovered from anesthesia. Animals were then returned to their home cages until behavioral testing began. The animals were assessed for response to noxious mechanical stimuli by determining PWT, as described below, prior to surgery (baseline), then immediately prior to and 1, 3, and 5 hours after drug administration for rear paw of the animal. Percentage reversal of neuropathic hyperalgesia was defined as: […]
The paw pressure assay was used to assess mechanical hyperalgesia. For this assay, hind paw withdrawal thresholds (PWT) to a noxious mechanical stimulus were determined using an analgesymeter (Model 7200, commercially available from Ugo Basile of Italy) as described in C. […] The maximum weight that could be applied to the hind paw was set at 250 g and the end point is taken was complete withdrawal of the paw. PWT was determined once for each rat at each time point and either only the affected (ipsilateral) paw was tested, or both the ipsilateral and contralateral (non-injured) paw were tested.

[5] = 5 mg/kg dose, 1 hour after administration
[6] = 5 mg/kg dose, 3 hours after administration
[7] = 5 mg/kg dose, 5 hours after administration

Row | Structure (SMILES) | abnormal behavioral side effects, such as sedation, hyperactivity and/or hypoactivity [1] | cardiovascular side effects [2] | % reversal of thermal hyperalgesia ([3]; 3 mg/kg dose, 1 hour after administration) [%] | % reversal of thermal hyperalgesia ([3]; 3 mg/kg dose, 3 hours after administration) [%] | % reversal of thermal hyperalgesia ([3]; 3 mg/kg dose, 5 hours after administration) [%] | ED50 for reversal of thermal hyperalgesia ([3]; 1 hour after administration) [mg/kg] | ED50 for reversal of thermal hyperalgesia ([3]; 3 hours after administration) [mg/kg] | ED50 for reversal of thermal hyperalgesia ([3]; 5 hours after administration) [mg/kg] | % reversal of mechanical hyperalgesia ([4]; 1 hour after administration) [%] | % reversal of mechanical hyperalgesia ([4]; 3 hours after administration) [%] | % reversal of mechanical hyperalgesia ([4]; 5 hours after administration) [%] | % reversal of mechanical hyperalgesia ([4]; 7 hours after administration) [%] | % reversal of thermal hyperalgesia [3, 5] [%] | % reversal of thermal hyperalgesia [3, 6] [%] | % reversal of thermal hyperalgesia [3, 7] [%]
1 | O=C(O)c1nc2ccccc2n([C@H]2C[C@H]3CCC[C@@H](C2)N3C2CC3CCCC(C3)C2)c1=O (stereo partly drawn) [Compound 362, 4-((endo)-9-((exo)-bicyclo[3.3.1]nonan-3-yl)-9-azabicyclo[3.3.1]nonan-3-yl)-3-oxo-3,4-dihydroquinoxaline-2-carboxylic acid] | reduced abnormal behavioral side effects | reduced cardiovascular side effects | 86 | 51 | 27 | 0.8 | 1.5 | 3.0 | 60 | 60 | 50 | 40 |  |  | 
2 | C[C@@H]1C[C@@H]2C[C@H](C1)C[C@@H](N1[C@@H]3CCC[C@H]1C[C@@H](n1c(=O)c(C(=O)O)nc4ccccc41)C3)C2 [Compound 405, (exo, endo, endo)-4-(9-(7-methylbicyclo[3.3.1]nonan-3-yl)-9-azabicyclo[3.3.1]nonan-3-yl)-3-oxo-3,4-dihydroquinoxaline-2-carboxylic acid potassium salt] |  |  |  |  |  |  |  |  | 70 | 70 | 70 |  |  |  | 
3 | O=C(O)c1nc2ccccc2n([C@H]2C[C@H]3CC[C@@H](C2)N3C2CCCCCCCCCC2)c1=O [Compound 358, 4-((endo)-8-cycloundecyl-8-azabicyclo[3.2.1]octan-3-yl)-3-oxo-3,4-dihydroquinoxaline-2-carboxylic acid] | reduced abnormal behavioral side effects |  |  |  |  |  |  |  |  |  |  |  | 34 | 46 | 79
4 | O=C(O)c1nc2ccccc2n([C@H]2C[C@H]3CC[C@@H](C2)N3[C@H]2C[C@@H]3CCC[C@@H](C3)C2)c1=O [Compound 361, 4-((endo)-8-((exo)-bicyclo[3.3.1]nonan-3-yl)-8-azabicyclo[3.2.1]octan-3-yl)-3-oxo-3,4-dihydroquinoxaline-2-carboxylic acid] | reduced abnormal behavioral side effects |  |  |  |  |  |  |  |  |  |  |  | 36 | 90 | 70
